Measured values taken from article PMC8199067, “Urolithin and Reduced Urolithin Derivatives as Potent Inhibitors of Tyrosinase and Melanogenesis: Importance of the 4-Substituted Resorcinol Moiety” (International Journal of Molecular Sciences, 2021).
Several values for one entry are separate records, joined by “and”; a condition that tells them apart may be missing. Equal values may be shown once. Read-outs that look alike come from different tables or passages of the source.

Columns and labels:
[1] = target: T1, mushroom tyrosinase (Agaricus bisporus, UniProt C7FF04); assay: Mushroom tyrosinase inhibitory assay (L-tyrosine substrate); type: biochemical; conditions: for inhibition at 50 µM / Tyrosinase Inhibition (%): L-tyrosine as substrate, mean ± SEM, NI means no inhibition, 50 μM
Protocol: The experiment was repeated three times. Mushroom tyrosinase inhibitions % were calculated using:% Inhibition = [1 − (A/B)] × 100(1) where A is the absorbance of the test compound and B is the absorbance of the blank.
Log-linear curves were plotted, and their equations were determined.
Target sequence in this assay (C7FF04 1-392 limits assumed): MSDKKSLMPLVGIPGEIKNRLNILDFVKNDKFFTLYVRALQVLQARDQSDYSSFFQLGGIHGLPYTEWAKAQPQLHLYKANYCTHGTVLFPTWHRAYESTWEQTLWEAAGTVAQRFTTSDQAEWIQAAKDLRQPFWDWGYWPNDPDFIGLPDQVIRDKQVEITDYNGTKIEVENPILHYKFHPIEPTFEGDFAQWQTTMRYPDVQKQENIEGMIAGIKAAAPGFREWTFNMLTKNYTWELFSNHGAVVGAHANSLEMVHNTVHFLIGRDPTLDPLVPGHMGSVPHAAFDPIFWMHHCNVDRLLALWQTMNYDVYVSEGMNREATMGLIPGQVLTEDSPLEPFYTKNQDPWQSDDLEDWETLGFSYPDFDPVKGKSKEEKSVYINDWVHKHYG

[2] = tested on: B16F10 melanoma cells; assay: EZ-cytox cell viability assay; type: cell-based, murine; conditions: 1–20 µM, 24 h
Protocol: (§1) EZ-cytox assays were performed to examine whether these compounds are cytotoxic.
(§2) B16F10 murine melanoma cells were purchased from the American Type Culture Collection (ATCC, Manassas, VA, USA). Cells were cultured in Dulbecco’s modified Eagle’s medium (10% fetal bovine serum (FBS), and 1% streptomycin) obtained from Gibco/Thermo Fisher Scientific (Carlsbad, CA, USA) at 37 °C in a 5% CO2 environment. These cultured cells were used for cell viability, melanin content, and cellular tyrosinase inhibitory assays.
(§3) EZ-cytox assays were performed on 1c, 1h, and 2a, according to previously described. B16F10 cells were seeded in a 96-well plate at a density of 5 × 10^4 cells/well and incubated at 37 °C in a humidified 5% CO2 atmosphere overnight. Cells were then treated with different concentrations of 1c, 1h, or 2a (0, 1, 2, 5, 10, or 20 µM) and incubated for 24 h under the same conditions. EZ-cytox solution (10 µL) was then added and the plate was incubated for 3 h at 37 °C in a humidified 5% CO2 atmosphere. Optical densities of wells were measured at 450 nm using an ELISA reader. All experiments were independently repeated three times.

[3] = EZ-cytox cell viability assay; type: cell-based, murine; conditions: mouse, B16F10 melanoma cells, 20 µM
Protocol: as §1, §2, §3

[4] = target: T1, mushroom tyrosinase; assay: Kinetic analysis of mushroom tyrosinase inhibition, Lineweaver–Burk plots; type: biochemical; conditions: for Mode of tyrosinase inhibition: Lineweaver–Burk analysis, L-tyrosine as substrate
Protocol: Briefly, 170 μL of a mixture of an aqueous solution of L-[…].0, 2.0, 4.0, or 8.0 mM and 50 mM of potassium phosphate (pH 6.5) was added to a 96-well plate. […] Lineweaver-Burk plots were used to determine Vmax (maximal reaction rates) and KM (Michaelis-Menten constants) of mushroom tyrosinase activities.
Target sequence in this assay (C7FF04 1-392): as the sequence (C7FF04 1-392 limits assumed) above

[5] = 1.56 μM, read-out: Average of Inhibition (%)
[6] = 1.56 μM, read-out: Inhibition (%), single determinations
[7] = 3.13 μM, read-out: Average of Inhibition (%)
[8] = 3.13 μM, read-out: Inhibition (%), single determinations
[9] = 6.25 μM, read-out: Average of Inhibition (%)
[10] = 6.25 μM, read-out: Inhibition (%), single determinations
[11] = inhibitor 10 μM, L-tyrosine 1.0–8.0 mM
[12] = not dependent on inhibitor concentration

With `COc1ccc2c(c1)oc(=O)c1ccccc12` [Compound 1b, 3-Methoxy-6H-benzo[c]chromen-6-one] the inhibition at 50 µM [1] was < 0%.
With `O=c1oc2cc(O)cc(O)c2c2ccccc12` [Compound 1c, 1,3-Dihydroxy-6H-benzo[c]chromen-6-one] the “Inhibition (%), single determinations” value ([1]; 1.56 μM) was 4.01% and 2.57%, the inhibition at 1.56 µM [1, 5] was 3.06 ± 0.47% and the inhibition at 1.56 µM [1, 6] was 2.61%. The “Inhibition (%), single determinations” value ([1]; 3.13 μM) was 10.84% and 9.94%, the inhibition at 3.13 µM [1, 7] was 10.1 ± 0.37% and the inhibition at 3.13 µM [1, 8] was 9.61%. For the same compound, the “Inhibition (%), single determinations” value ([1]; 6.25 μM) was 25.08% and 33.10%, the inhibition at 6.25 µM [1, 9] was 28.5 ± 2.39% and the inhibition at 6.25 µM [1, 10] was 27.3%. For the same compound, the “Inhibition (%), single determinations” value ([1]; 12.50 μM, 12.5 µM) was 45.18% and 48.37%, the inhibition at 12.5 µM ([1]; 12.50 μM, read-out: Average of Inhibition (%)) was 45.8 ± 1.37% and the inhibition at 12.5 µM ([1]; 12.50 μM, read-out: Inhibition (%), single determinations) was 43.7%. For the same compound, the “Inhibition (%), single determinations” value ([1]; 25.00 μM) was 61.85%, the inhibition at 25 µM ([1]; 25.00 μM, read-out: Average of Inhibition (%)) was 61.21 ± 0.32% and the inhibition at 25 µM ([1]; 25.00 μM, read-out: Inhibition (%), single determinations) was 60.9%. For the same compound, the “Tyrosinase Inhibition (%)” value [1] was 68.93 ± 0.67%, the inhibition at 50 µM [1] was 69% and the IC50 ([1]; mushroom tyrosinase, L-tyrosine, read-out: IC50) was 18.1 ± 0.25 µM. For the same compound, the Cytotoxic effect [2] was “weakly cytotoxic”, the viability at 24 h, 20 µM [3] was 71.4% and the “Mode of tyrosinase inhibition” value [4] was “competitive inhibitors”. The “Vmax” value [4, 11] was 0.027 mM/min, the “Vmax” value ([4]; inhibitor 20 μM, L-tyrosine 1.0–8.0 mM) was 0.027 mM/min and the “Vmax” value ([4]; inhibitor 40 μM, L-tyrosine 1.0–8.0 mM) was 0.027 mM/min. For the same compound, the Vmax [4, 12] was 0.027 mM/min.
In the case of `COc1cc(OC)c2c(c1)oc(=O)c1ccccc12` [Compound 1d, 1,3-Dimethoxy-6H-benzo[c]chromen-6-one], the inhibition at 50 µM [1] is reported as < 0%.
With `O=c1oc2cc(O)cc(O)c2c2ccc(O)cc12` [Compound 1f, 1,3,8-Trihydroxy-6H-benzo[c]chromen-6-one] the “Tyrosinase Inhibition (%)” value [1] was 12.68 ± 6.09% and the inhibition at 50 µM [1] was 13%.
For `COc1ccc2c(c1)c(=O)oc1cc(O)ccc12` [Compound 1g, 3-Hydroxy-8-methoxy-6H-benzo[c]chromen-6-one], the inhibition at 50 µM [1] was < 0%.
For `COc1ccc2c(c1)c(=O)oc1cc(O)cc(O)c12` [Compound 1h, 1,3-Dihydroxy-8-methoxy-6H-benzo[c]chromen-6-one], the IC50 [1] was 4.14 ± 0.1 µM, the “Inhibition (%), single determinations” value ([1]; 0.78 μM) was 15.61% and 18.94% and the inhibition at 0.78 µM ([1]; 0.78 μM, read-out: Average of Inhibition (%)) was 16.7 ± 1.1%. For the same compound, the inhibition at 0.78 µM ([1]; 0.78 μM, read-out: Inhibition (%), single determinations) was 15.7%, the “Inhibition (%), single determinations” value ([1]; 1.56 μM) was 24.63% and 31.11% and the inhibition at 1.56 µM [1, 5] was 28 ± 1.88%. The inhibition at 1.56 µM [1, 6] was 28.3%, the “Inhibition (%), single determinations” value ([1]; 3.13 μM) was 48.92% and the inhibition at 3.13 µM [1, 7] was 48.78 ± 0.07%. The inhibition at 3.13 µM [1, 8] was 48.7%, the “Inhibition (%), single determinations” value ([1]; 6.25 μM) was 63.95% and 66.79% and the inhibition at 6.25 µM [1, 9] was 64.9 ± 0.94%. The inhibition at 6.25 µM [1, 10] was 64%, the “Tyrosinase Inhibition (%)” value [1] was 94.86 ± 0.16% and the inhibition at 50 µM [1] was 95%. For the same compound, the Cytotoxic effect [2] was “weakly cytotoxic”, the viability at 24 h, 20 µM [3] was 70.8% and the “Mode of tyrosinase inhibition” value [4] was “competitive inhibitors”. The “Vmax” value ([4]; inhibitor 2.5 μM, L-tyrosine 1.0–8.0 mM) was 0.031 mM/min, the “Vmax” value ([4]; inhibitor 5 μM, L-tyrosine 1.0–8.0 mM) was 0.031 mM/min and the “Vmax” value [4, 11] was 0.031 mM/min. It also gave a Vmax [4, 12] of 0.031 mM/min.
In the case of `COc1ccc2c(c1)oc(=O)c1cc(OC)ccc12` [Compound 1i, 3,8-Dimethoxy-6H-benzo[c]chromen-6-one], the inhibition at 50 µM [1] is reported as < 0%.
In the case of `COc1cc(OC)c2c(c1)oc(=O)c1cc(OC)ccc12` [Compound 1j, 1,3,8-Trimethoxy-6H-benzo[c]chromen-6-one], the inhibition at 50 µM [1] is reported as < 0%.
